Data set [1] concerns LS174T colon cancer xenograft. From the text: Experimental overview. Human HT-29 or LS174T colon cancer xenotransplants were established in athymic nude mice (Nu/Nu mice, Charles River Labs, Wilmington, Mass.) by injecting mice with 1×10^7 HT29 cells (ATCC, Manassas, Va.), or 2×10^6 LS174T cells (ATCC Manassas, Va.) sub-cutaneously and allowing the tumors to grow for 5 days. On day 5, two dimensional measurements of the established tumors were taken using a digital caliper. Once tumor measurements were taken, the mice were randomized into groups such that the average tumor size was the same in each group. […]
A third experiment (Experiment 3) was designed to test ARC308/irinotecan and GLEEVEC™/irinotecan dosing regimens in a colon cancer xenotransplant model using human colon carcinoma cell line LS174T (ATCC). […] ARC308 was dosed via intraperitoneal delivery at 50 mg/kg once daily, and GLEEVEC™ was dosed at 50 mg/kg once daily, Monday through Friday. ARC308 prevents PDGF-BB from binding the PDGF receptor; this molecule has a 30K PEG attached. […] The results are statistically significant (two tailed students T-test).
An efficacy analysis of three treatment groups in this study is shown in Table 10 in terms of log cell kill and log cell kill net. Log cell kill is the log(base10) of the number of tumor cells before treatment divided by the number of cells after treatment. […] A fourth experiment (Experiment 4) was designed to further test ARC308/irinotecan dosing regimens in a colon cancer xenotransplant model using human colon carcinoma cell line LS174T (ATCC). […]

Data set [2] can be described thus: Pharmacokinetics of ARC126 5′ PEG conjugates in mice.
Description: The pharmacokinetic (PK) data shown in FIG. 12A was subjected to non-compartmental analysis (NCA) using the industry-standard software package WinNonLin™ v.4.0 (Pharsight Corp., Mountain View, Calif.). […] The pharmacokinetic (PK) data shown in FIG. 12B was subjected to noncompartmental analysis (NCA) using the industry-standard software package WinNonLin™ v.4.0 (Pharsight Corp., Mountain View, Calif.).
The pharmacokinetic (PK) data shown in FIG. 12B was subjected to noncompartmental analysis (NCA) using the industry-standard software package WinNonLin™ v.4.0 (Pharsight Corp., Mountain View, Calif.).
For the next data set, the system named is U87 glioblastoma cells. Kind of data set: Clonogenic growth assay. It is filed as cell-based. As for the experimental part: U87 glioblastoma cells (ATCC) were grown in the presence or absence of mitogen as well as aptamer as shown in the panels. U87 cells were plated in DMEM/10% FBS to 50% confluency in 100 mm dishes. […] The addition of a final concentration of 50 ng/ml PDGF BB alone caused the appearance of highly connected three dimensional cell clusters. […] Thus, the aptamer blocks cell to cell adhesion of U87 cells which are known to have PDGF driven autocrine loops.

The mark [3] stands for this setting: IV administration at 10 mg/kg in mice.

{PEG40k} = 40 kDa polyethylene glycol; [invdT] = inverted (3'-3') thymidine; [HEG] = hexaethylene glycol spacer

For “5′-[40 K PEG]-(SEQ ID NO:1)-HEG-(SEQ ID NO:2)-HEG-(SEQ ID NO:3)-3′-dT-3′ (chain 1 CAGGCUACG; chain 2 CGTAGAGCAUCA; chain 3 TGATCCUG; piece 1: 2'-fluoro at 6, 8, 2'-O-methyl at 9, 5' {PEG40k}, 3' [HEG], other sugars and backbone not given here; piece 2: 2'-O-methyl at 5, 7, 12, 2'-fluoro at 10, 11, 3' [HEG], other sugars and backbone not given here; piece 3: 2'-fluoro at 5, 6, 7, 2'-O-methyl at 8, 3' [invdT], other sugars and backbone not given here) [ARC127]”, in data set [1] (Experiment 2: ARC127 50 mg/kg IP once daily + irinotecan 150 mg/kg weekly vs irinotecan alone), the “efficacy of irinotecan (rate of tumor growth)” value is given as “enhanced the efficacy of irinotecan treatment”. For the same substance, the dose-limiting side effects result in data set [1] (in vivo experiments) is reported as “not evident”. For the same substance, in data set [2] (IP, 10 mg/kg in mice), the “AUC” value was 143605.5 nM·h, the “MRT” value was found to be 11.231 h and the “tmax” value was determined as 8 h. Further, in data set [2] (setting [3]), the Cmax was determined as 61 µM, the “MRT” value amounted to 5.08 h and the “Vs” value was determined as 0.0001 L/kg. Further, in data set [2] (IV, 10 mg/kg in mice), the “AUC” value amounted to 229686.8 nM·h, the “MRT” value is 6.573 h and the “tmax” value was found to be 2 h. The “plasma concentration at 24 hrs post-dose” value in data set [2] (IV, IP or SC, 10 mg/kg in mice) is reported as roughly 1. In data set [2] (SC, 10 mg/kg in mice), the “AUC” value was 55030.91 nM·h, the “MRT” value stood at 16.632 h and the “tmax” value amounted to 8 h. Moreover, in data set [2] (intraperitoneal (IP), 10 mg/kg in mice), the “systemic bioavailability, F” value was roughly 63%. Further, the “systemic bioavailability, F” value in data set [2] (subcutaneous (SC), 10 mg/kg in mice) is on record as roughly 24%. For the same substance, in the data set with U87 glioblastoma cells, the “proliferation rate of U87 cells (MTT assay)” value is on record as “no effect on proliferation rate”. In the data set on U87 glioblastoma cells (50 ng/ml PDGF-BB plus ARC127), the “occurrence of three dimensional cell clusters” value is “reduced the occurrence of clusters to background level”.

The values are drawn from US20090053138A1, “Stabilized Aptamers to Platelet Derived Growth Factor and their Use as Oncology Therapeutics” (priority 2002, published 2009).
